Data on 6 compounds can be found in patent US10231463B2, “Food mass suitable for microwaving” (Chemische Fabrik Budenheim KG, priority 2013, dated 2019).

Where only a bound is given, the exact number is not on record here.

Broadly, the Solubility is the dissolved amount per volume that the medium holds.

A short description of data set [1]: Thawing and baking trials with yeast-raised wheat frozen doughs in a microwave oven. To be noted: yeast-raised wheat frozen dough; for ΔT (temperature difference between crust temperature and crumb temperature): 2 parts by weight additive, 600 watts, 120 seconds; for Microwave activity: assessment scale from ΔT. The protocol: Dough Composition (Basic Recipe):
In addition 2 parts by weight of microwave absorber were added to the basic recipe.
• Mixing and kneading time: 3+2 minutes (the latter in a Stephan mixer) • Dough standing time: 20 minutes • Dough piece weight: 200 g • Cooking time of the dough pieces: 20 minutes • Freezing time: about 4 hours • Deep freeze storage time: about 2 days Thawing and Baking Trials:
The deep-frozen dough pieces were exposed to microwave radiation in a microwave oven from Panasonic (model: NN-GD560M—inverter microwave) for a predetermined period of 120 seconds and with a predetermined microwave power of 600 watts (according to the device indication). After 2 minutes of standing time the temperature of the crust and the crumb was measured by means of an infrared temperature sensor at various measurement points on the dough piece.
Measurement value 1 (M1)=average crust temperature outside
Measurement value 2 (M2)=average crumb temperature in the interior of the dough piece.

Data set [2] in a line: Solubility of the additive in water at 20° C. The class given is physicochemical.
Data set [3] in a line: Pore volume by nitrogen gas adsorption (BJH method, BELSORP-mini II). The following applies: total pore volume Vp, nitrogen adsorption at 77.3 K. The class given is physicochemical. The text has this:
Determining the Pore Volume
The pore volume in accordance with the present invention is characterised by means of gas adsorption. The recording of physisorption isotherms (adsorption and desorption isotherms) of inert gas molecules at low temperatures is routinely used for determining solids parameters.
The BJH method provides an algorithm for the calculation of pore width distribution from nitrogen adsorption data on the assumption of a cylindrical pore geometry. In that respect consideration is given to the change in the adsorbed volume in the pores in dependence on the pore radius, wherein the pore radius distribution function is related as a relative value to the total pore volume. […] It is assumed that the entire pore system is filled with a capillary condensate.

The nature of data set [4]: Thawing and baking trials with puff pastry in a microwave oven. The method, then: A puff pastry from Veripan was used as the basic recipe.
2 parts by weight of microwave absorber were further added to the basic recipe.
Wheat flour, inverted sugar, emulsifier and optionally microwave absorber were put into a mixing container and mixed. The water and 20% of the vegetable fat were added and kneaded for 3 minutes at a low stage and for 5 minutes at a medium stage with a spiral kneader. The dough temperature was monitored. The target temperature was 18° C. After that the remaining vegetable fat was beaten into the dough. The dough was then folded at intervals each of 30 minutes in 4 working steps, more specifically 2 single and 2 double turns. They give by calculation 144 fat layers (margarine), divided into very thin dough and fat layers. Before processing the dough was stored in a cooled condition for 12 hours.
Unbaked puff pastry dough roundels without filling and pre-baked puff pastry dough pockets (hot pockets) with a tomato sauce filling were respectively subjected to microwave radiation as deep-frozen dough pieces in a microwave oven from Panasonic (see Example 2) for a predetermined period and with a predetermined microwave power. After a […] standing time the temperature of the dough piece was measured by means of a thermal imaging camera (Fluke Ti20) and evaluated.
Measurement value 1 (M1)=averaged crust temperature outside
Measurement value 2 (M2)=averaged crumb temperature in the interior of the dough piece.
Puff pastry dough roundel (PPD-RO): 440 watts; 200 seconds
Puff pastry dough hot pockets (PPD-HP): 600 watts; 300 seconds
Table 3 hereinafter reproduces the additives used, the temperature measurement values M1 and M2 and the corresponding temperature difference (ΔT) between crust temperature and crumb temperature of the dough piece.
Assessment of Microwave Activity in Puff Pastry Doughs 1: ΔT=>20° C.=very good 2: ΔT=15 to <20° C.=good 3: ΔT=<15° C.=no additional additive

Data set [5] in a line: Baking trials with ready-to-eat baking mixture (lemon cake) in a microwave oven. The method, then:
A ready-to-eat baking mixture for lemon cakes from […] was used as the basic recipe. […] Whole egg and sugar were put into a mixing container and mixed. The powder mixture of the composition (wheat flour, cooking salt and so forth) was slowly mixed in. Vegetable oil, flavouring substances and alcohol were then slowly added and mixing was effected for 12 minutes. After that baking raising agent was added and mixed at a medium stage for a further 2 minutes. After that the microwave absorber was mixed in, the mixer was switched off, and the material was tipped out and stored cool.

For the compound “Sodium aluminium phosphate 1:3:8 NaH14Al3(PO4)8 [SALP 1]”, in data set [1], the “ΔT (temperature difference between crust temperature and crumb temperature)” value came to 29.6 °C; the Microwave activity was 2 (ΔT=25 to 40° C.=good). In data set [2], this compound yielded a Solubility of 15 mg/mL. Moreover, the “Pore Volume” value in data set [3] is recorded as 13 10^−3 cm^3/g.
Regarding `O=P([O-])([O-])OP(=O)([O-])OP(=O)([O-])[O-].[K+].[K+].[K+].[K+].[K+]` [KTPP(V), Potassium tripolyphosphate, reference compound], in data set [1], the “ΔT (temperature difference between crust temperature and crumb temperature)” value came to 12.3 °C; the Microwave activity is given as 3 (ΔT=<25° C.=no additional activity). Also, the Solubility in data set [2] is >200 mg/mL. For the same compound, the “Pore Volume” value in data set [3] is given as 1.1 10^−3 cm^3/g.
`O=P(O)(O)OP(=O)(O)OP(=O)(O)O` [STPP(V), Sodium tripolyphosphate, reference compound]: in data set [1], the “ΔT (temperature difference between crust temperature and crumb temperature)” value is 12.6 °C; the Microwave activity is recorded as 3 (ΔT=<25° C.=no additional activity). In data set [2], this compound had a Solubility of 145 mg/mL. The “Pore Volume” value in data set [3] was 1.1 10^−3 cm^3/g.
Take `O=P([O-])(O)OP(=O)([O-])O.[Ca+2]` [CAPP, Acid calcium pyrophosphate]: the “ΔT (temperature difference between crust temperature and crumb temperature)” value in data set [1] was 50.0 °C; in data set [4] (2 parts by weight additive, puff pastry dough pieces), 26.1 °C; in data set [5] (2 parts by weight additive, 600 watts, 140 seconds) it was 21.2 °C. The Microwave activity in data set [1] is 1 (ΔT=>40° C.=very good); in data set [4] (assessment scale from ΔT, puff pastry doughs) it was 1 (ΔT=>20° C.=very good); in data set [5] (assessment scale from ΔT) it was 1 (ΔT=>20° C.=very good). For the same compound, the “Pore Volume” value in data set [3] is on record as 3.6 10^−3 cm^3/g.
As to “Sodium aluminium phosphate 3:2:8 Na3H15Al2*PO4)8 [SALP 2]”, in data set [1], the “ΔT (temperature difference between crust temperature and crumb temperature)” value came to 20.5 °C; the Microwave activity is on record as 2 (ΔT=25 to 40° C.=good). This compound also returned a Solubility in data set [2] of 15 mg/mL. The “Pore Volume” value in data set [3] was 6.4 10^−3 cm^3/g.
Consider Magnesium metaphosphate [MMP], for which, in data set [1], the “ΔT (temperature difference between crust temperature and crumb temperature)” value was 38.4 °C; the Microwave activity is given as 2 (ΔT=25 to 40° C.=good). Besides, the Solubility in data set [2] is <0.1 mg/mL. The “Pore Volume” value in data set [3] is 5.1 10^−3 cm^3/g.
